Molecular target: T1, human MDM2 (GST-hMDM2 1-188), interaction with biotinylated-p53 (1-83) (Homo sapiens, UniProt Q00987)
T1 construct: Amino acid residues 1-188 of human MDM2 were expressed; made in house; host or cells: Escherichia coli
Test: improved HTRF assay (HTRF2 assay), inhibition of HDM2-p53 interaction
Type: binding
Details: 0.2 nM GST-hMDM2, 0.5 nM biotinylated-p53, 100 mM KF
Summary of the method: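 GST-hMDM2 preincubated 20 min at RT with serially diluted compound, then biotinylated p53 (1-83, E. coli) added for 60 min. Detection with SA-XLent, anti-GST cryptate and KF, equilibrated >4 h; final DMSO 2%. TR-FRET read; % inhibition calculated relative to nutlin-3.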

T1 sequence (Q00987 1-188): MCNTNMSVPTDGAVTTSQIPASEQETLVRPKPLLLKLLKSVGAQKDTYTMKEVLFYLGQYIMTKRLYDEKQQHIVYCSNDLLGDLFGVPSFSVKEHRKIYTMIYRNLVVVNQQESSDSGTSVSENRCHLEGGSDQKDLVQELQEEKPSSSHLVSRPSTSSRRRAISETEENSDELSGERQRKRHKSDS

Row | SMILES | IC50 [nM]
1 | Cc1n[nH]c(C[C@H]2O[C@H](c3cccc(Cl)c3)[C@@H](c3ccc(Cl)cc3)N([C@H](CN(c3ccccc3F)S(=O)(=O)C3CC3)C3CC3)C2=O)n1 (single isomer, unassigned) [Example 393, N-((S)-2-((2R,3R,6R)-2-(3-Chlorophenyl)-3-(4-chlorophenyl)-6-((3-methyl-1H-1,2,4-triazol-5-yl)methyl)-5-oxomorpholino)-2-cyclopropylethyl)-N-(2-fluorophenyl)cyclopropanesulfonamide or N-((S)-2-((2S,3R,6R)-2-(3-chlorophenyl)-3-(4-chlorophenyl)-6-((3-methyl-1H-1,2,4-triazol-5-yl)methyl)-5-oxomorpholino)-2-cyclopropylethyl)-N-(2-fluorophenyl)cyclopropanesulfonamide] | < 1
2 | O=C1[C@@H](Cc2cnn[nH]2)O[C@H](c2cccc(Cl)c2)[C@@H](c2ccc(Cl)cc2)N1[C@H](CN(c1ccccc1F)S(=O)(=O)C1CC1)C1CC1 (single isomer, unassigned) [Example 394, N-((S)-2-((2R,5R,6R)-2-((1H-1,2,3-Triazol-5-yl)methyl)-6-(3-chlorophenyl)-5-(4-chlorophenyl)-3-oxomorpholino)-2-cyclopropylethyl)-N-(2-fluorophenyl)cyclopropanesulfonamide or N-((S)-2-((2S,5R,6R)-2-((1H-1,2,3-triazol-5-yl)methyl)-6-(3-chlorophenyl)-5-(4-chlorophenyl)-3-oxomorpholino)-2-cyclopropylethyl)-N-(2-fluorophenyl)cyclopropanesulfonamide] | 1
3 | O=C1[C@@H](Cc2cnn[nH]2)O[C@H](c2cccc(Cl)c2)[C@@H](c2ccc(Cl)cc2)N1[C@H](CN(c1ccccc1F)S(=O)(=O)C1CC1)C1CC1 (single isomer, unassigned) [Example 395, N-((S)-2-((2R,5R,6R)-2-((1H-1,2,3-Triazol-5-yl)methyl)-6-(3-chlorophenyl)-5-(4-chlorophenyl)-3-oxomorpholino)-2-cyclopropylethyl)-N-(2-fluorophenyl)cyclopropanesulfonamide or N-((S)-2-((2S,5R,6R)-2-((1H-1,2,3-triazol-5-yl)methyl)-6-(3-chlorophenyl)-5-(4-chlorophenyl)-3-oxomorpholino)-2-cyclopropylethyl)-N-(2-fluorophenyl)cyclopropanesulfonamide] | 1
4 | O=C1[C@@H](Cc2ncn[nH]2)O[C@H](c2cccc(Cl)c2)[C@@H](c2ccc(Cl)cc2)N1[C@H](CN(c1ccccc1F)S(=O)(=O)C1CC1)C1CC1 (single isomer, unassigned) [Example 396, N-((S)-2-((2R,5R,6R)-2-((1H-1,2,4-Triazol-5-yl)methyl)-6-(3-chlorophenyl)-5-(4-chlorophenyl)-3-oxomorpholino)-2-cyclopropylethyl)-N-(2-fluorophenyl)cyclopropanesulfonamide or N-((S)-2-((2S,5R,6R)-2-((1H-1,2,4-triazol-5-yl)methyl)-6-(3-chlorophenyl)-5-(4-chlorophenyl)-3-oxomorpholino)-2-cyclopropylethyl)-N-(2-fluorophenyl)cyclopropanesulfonamide] | 2
5 | O=C1[C@@H](Cc2ncn[nH]2)O[C@H](c2cccc(Cl)c2)[C@@H](c2ccc(Cl)cc2)N1[C@H](CN(c1ccccc1F)S(=O)(=O)C1CC1)C1CC1 (single isomer, unassigned) [Example 397, N-((S)-2-((2R,5R,6R)-2-((1H-1,2,4-Triazol-5-yl)methyl)-6-(3-chlorophenyl)-5-(4-chlorophenyl)-3-oxomorpholino)-2-cyclopropylethyl)-N-(2-fluorophenyl)cyclopropanesulfonamide or N-((S)-2-((2S,5R,6R)-2-((1H-1,2,4-triazol-5-yl)methyl)-6-(3-chlorophenyl)-5-(4-chlorophenyl)-3-oxomorpholino)-2-cyclopropylethyl)-N-(2-fluorophenyl)cyclopropanesulfonamide] | 1
6 | O=C1[C@@H](Cc2nnn[nH]2)O[C@H](c2cccc(Cl)c2)[C@@H](c2ccc(Cl)cc2)N1[C@H](CN(c1ccccc1F)S(=O)(=O)C1CC1)C1CC1 (single isomer, unassigned) [Example 398, N-((S)-2-((2R,5R,6R)-2-((1H-Tetrazol-5-yl)methyl)-6-(3-chlorophenyl)-5-(4-chlorophenyl)-3-oxomorpholino)-2-cyclopropylethyl)-N-(2-fluorophenyl)cyclopropanesulfonamide or N-((S)-2-((2S,5R,6R)-2-((1H-tetrazol-5-yl)methyl)-6-(3-chlorophenyl)-5-(4-chlorophenyl)-3-oxomorpholino)-2-cyclopropylethyl)-N-(2-fluorophenyl)cyclopropanesulfonamide] | < 1
7 | O=C1[C@@H](Cc2nnn[nH]2)O[C@H](c2cccc(Cl)c2)[C@@H](c2ccc(Cl)cc2)N1[C@H](CN(c1ccccc1F)S(=O)(=O)C1CC1)C1CC1 (single isomer, unassigned) [Example 399, N-((S)-2-((2R,5R,6R)-2-((1H-Tetrazol-5-yl)methyl)-6-(3-chlorophenyl)-5-(4-chlorophenyl)-3-oxomorpholino)-2-cyclopropylethyl)-N-(2-fluorophenyl)cyclopropanesulfonamide or N-((S)-2-((2S,5R,6R)-2-((1H-tetrazol-5-yl)methyl)-6-(3-chlorophenyl)-5-(4-chlorophenyl)-3-oxomorpholino)-2-cyclopropylethyl)-N-(2-fluorophenyl)cyclopropanesulfonamide] | < 1
8 | CC[C@@H](CS(=O)(=O)C(C)(C)C)N1C(=O)[C@@H](Cc2nnnn2C)O[C@H](c2cccc(Cl)c2)[C@H]1c1ccc(Cl)cc1 (single isomer, unassigned) [Example 400, (2R,5R,6R)-4-((S)-1-(tert-Butylsulfonyl)butan-2-yl)-6-(3-chlorophenyl)-5-(4-chlorophenyl)-2-((1-methyl-1H-tetrazol-5-yl)methyl)morpholin-3-one or (2R,5R,6R)-4-((S)-1-(tert-butylsulfonyl)butan-2-yl)-6-(3-chlorophenyl)-5-(4-chlorophenyl)-2-((2-methyl-2H-tetrazol-5-yl)methyl)morpholin-3-one] | 37
9 | CC[C@@H](CS(=O)(=O)C(C)(C)C)N1C(=O)[C@@H](Cc2nnnn2C)O[C@H](c2cccc(Cl)c2)[C@H]1c1ccc(Cl)cc1 (single isomer, unassigned) [Example 401, (2R,5R,6R)-4-((S)-1-(tert-Butylsulfonyl)butan-2-yl)-6-(3-chlorophenyl)-5-(4-chlorophenyl)-2-((1-methyl-1H-tetrazol-5-yl)methyl)morpholin-3-one or (2R,5R,6R)-4-((S)-1-(tert-butylsulfonyl)butan-2-yl)-6-(3-chlorophenyl)-5-(4-chlorophenyl)-2-((2-methyl-2H-tetrazol-5-yl)methyl)morpholin-3-one] | 38
10 | Cc1nnc(C[C@H]2O[C@H](c3cccc(Cl)c3)[C@@H](c3ccc(Cl)cc3)N([C@H](CN(c3ccccc3F)S(=O)(=O)C3CC3)C3CC3)C2=O)o1 (single isomer, unassigned) [Example 403, N-((S)-2-((2R,3R,6R)-2-(3-Chlorophenyl)-3-(4-chlorophenyl)-6-((5-methyl-1,3,4-oxadiazol-2-yl)methyl)-5-oxomorpholino)-2-cyclopropylethyl)-N-(2-fluorophenyl)cyclopropanesulfonamide or N-((S)-2-((2S,3R,6R)-2-(3-chlorophenyl)-3-(4-chlorophenyl)-6-((5-methyl-1,3,4-oxadiazol-2-yl)methyl)-5-oxomorpholino)-2-cyclopropylethyl)-N-(2-fluorophenyl)cyclopropanesulfonamide] | 2
11 | Cc1nnc(C[C@H]2O[C@@H](c3cccc(Cl)c3)[C@@H](c3ccc(Cl)cc3)N([C@H](CN(c3ccccc3F)S(=O)(=O)C3CC3)C3CC3)C2=O)o1 (single isomer, unassigned) [Example 404, N-((S)-2-((2S,3R,6R)-2-(3-Chlorophenyl)-3-(4-chlorophenyl)-6-((5-methyl-1,3,4-oxadiazol-2-yl)methyl)-5-oxomorpholino)-2-cyclopropylethyl)-N-(2-fluorophenyl)cyclopropanesulfonamide or N-((S)-2-((2R,3R,6R)-2-(3-chlorophenyl)-3-(4-chlorophenyl)-6-((5-methyl-1,3,4-oxadiazol-2-yl)methyl)-5-oxomorpholino)-2-cyclopropylethyl)-N-(2-fluorophenyl)cyclopropanesulfonamide] | 134
12 | NS(=O)(=O)C[C@H]1O[C@H](c2cccc(Cl)c2)[C@@H](c2ccc(Cl)cc2)N([C@H](CN(c2ccccc2F)S(=O)(=O)C2CC2)C2CC2)C1=O (single isomer, unassigned) [Example 409, N-((S)-2-((2R,3R,6S)-2-(3-Chlorophenyl)-3-(4-chlorophenyl)-5-oxo-6-(sulfamoylmethyl)morpholino)-2-cyclopropylethyl)-N-(2-fluorophenyl)cyclopropanesulfonamide or N-((S)-2-((2S,3R,6S)-2-(3-chlorophenyl)-3-(4-chlorophenyl)-5-oxo-6-(sulfamoylmethyl)morpholino)-2-cyclopropylethyl)-N-(2-fluorophenyl)cyclopropanesulfonamide] | < 1
13 | NS(=O)(=O)C[C@H]1O[C@H](c2cccc(Cl)c2)[C@@H](c2ccc(Cl)cc2)N([C@H](CN(c2ccccc2F)S(=O)(=O)C2CC2)C2CC2)C1=O (single isomer, unassigned) [Example 410, N-((S)-2-((2R,3R,6S)-2-(3-Chlorophenyl)-3-(4-chlorophenyl)-5-oxo-6-(sulfamoylmethyl)morpholino)-2-cyclopropylethyl)-N-(2-fluorophenyl)cyclopropanesulfonamide or N-((S)-2-((2S,3R,6S)-2-(3-chlorophenyl)-3-(4-chlorophenyl)-5-oxo-6-(sulfamoylmethyl)morpholino)-2-cyclopropylethyl)-N-(2-fluorophenyl)cyclopropanesulfonamide] | < 1

Reference: patent publication US9376425B2, “Heterocyclic compounds as MDM2 inhibitors for the treatment of cancer” (AMGEN INC., priority 2011, dated 2016)
